{"source": "patent US11518763B2", "about": "(SCOHIA PHARMA, INC., priority 2018, dated 2022)", "key": {"[1]": {"details": "amide bond, DMF"}, "[2]": {"target": "T1, binding between NRF2 and KEAP1 (biotinylated human KEAP1 protein (Kelch domain), TAMRA-labeled NRF2 peptide) (Homo sapiens, UniProt Q14145)", "T1 construct": "biotinylated human KEAP1 protein (Kelch domain); biotin (biotinylated)", "T1 sequence (Q14145 321-609 limits assumed)": "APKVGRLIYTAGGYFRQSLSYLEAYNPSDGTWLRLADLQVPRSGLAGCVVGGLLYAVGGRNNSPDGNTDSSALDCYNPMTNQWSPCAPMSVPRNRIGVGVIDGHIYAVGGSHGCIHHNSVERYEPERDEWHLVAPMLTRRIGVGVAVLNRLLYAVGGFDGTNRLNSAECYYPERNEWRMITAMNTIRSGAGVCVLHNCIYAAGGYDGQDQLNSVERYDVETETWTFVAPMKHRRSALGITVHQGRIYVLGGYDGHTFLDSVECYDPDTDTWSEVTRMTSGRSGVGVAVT", "assay": "Measurement of activity of inhibiting NRF2 binding (NRF2-KEAP1 TR-FRET)", "details": "inhibition rate relative to control at 100 nM test compound; TR-FRET; 60 min at room temperature; read-out: NRF2 binding inhibitory activity (at 100 nM)"}}, "note": "Read-outs that look alike come from different tables or passages of the source.", "data": [{"smiles": "CCOC(=O)CC1c2ccc3c(c2)CN(CC3)C(=O)c2ccc(cc2)COCCCn2nnc3c(C)c1ccc32", "note": "(stereo not shown)", "values": [{"measurement": "ring closure, yield of all isomers", "setting": "[1]; from CCOC(=O)CC(c1ccc2c(c1)CN(C(=O)OC(C)(C)C)CC2)c1ccc2c(nnn2CCCOCc2ccc(C(=O)OC(C)(C)C)cc2)c1C, HATU, 23.0 mM, 25.0 °C, 3.0 h, 2 steps", "result": 67.7, "unit": "%"}]}, {"smiles": "COC(=O)C(C)(C)C1c2ccc3c(c2)CN(CC3)C(=O)c2c(C)cc(cc2C)COCCCn2nnc3c(C)c1ccc32", "note": "(stereo not shown)", "values": [{"measurement": "ring closure, yield of all isomers", "setting": "[1]; from COC(=O)C(C)(C)C(c1ccc2c(c1)CNCC2)c1ccc2c(nnn2CCCOCc2cc(C)c(C(=O)O)c(C)c2)c1C, HATU, 30.4 mM, 25.0 °C, 4.0 h", "result": 29.6, "unit": "%"}]}, {"smiles": "COC(=O)C(C)(C)C1c2ccc3c(c2)CN(CC3)C(=O)c2c(Cl)cc(cc2Cl)OCCCCn2nnc3c(C)c1ccc32", "note": "(stereo not shown)", "values": [{"measurement": "ring closure, yield of all isomers", "setting": "[1]; from COC(=O)C(C)(C)C(c1ccc2c(c1)CNCC2)c1ccc2c(nnn2CCCCOc2cc(Cl)c(C(=O)O)c(Cl)c2)c1C, HATU/DIPEA, 15.2 mM, 25.0 °C, 4.0 h", "result": 47.5, "unit": "%"}]}, {"smiles": "COC(=O)C(C)(C)C1c2ccc3c(c2)CN(CC3)C(=O)c2ccc(cc2)CCCCCn2nnc3c(C)c1ccc32", "note": "(stereo not shown)", "values": [{"measurement": "ring closure, yield of all isomers", "setting": "[1]; from COC(=O)C(C)(C)C(c1ccc2c(c1)CNCC2)c1ccc2c(nnn2CCCCCc2ccc(C(=O)O)cc2)c1C, HATU, 17.6 mM, 30.0 °C, 19.0 h", "result": 12.4, "unit": "%"}]}, {"smiles": "COC(=O)C(C)(C)C1c2ccc3c(c2)CN(CC3)C(=O)c2ccc(cc2)COCCCn2nnc3c(C)c1ccc32", "note": "(stereo not shown)", "values": [{"measurement": "ring closure, yield of all isomers", "setting": "[1]; from COC(=O)C(C)(C)C(c1ccc2c(c1)CNCC2)c1ccc2c(nnn2CCCOCc2ccc(C(=O)O)cc2)c1C, HATU, 18.6 mM, 25.0 °C, 4.0 h", "result": 20.7, "unit": "%"}]}, {"smiles": "CCOC(=O)CC1c2ccc3c(c2)CN(CC3)C(=O)c2ccc(cc2)CCCCCn2nnc3c(C)c1ccc32", "note": "(stereo not shown) [Example 37, Ethyl [32-methyl-20-oxo-8,9,10,21-tetraazahexacyclo[19.5.3.2^16,19.1^3,7.0^6,10.0^24,28]dotriaconta-1(26),3(32),4,6,8,16,18,24,27,30-decaen-2-yl]acetate]", "values": [{"measurement": "inhibition at 0.1 µM", "setting": "[2]", "result": 29, "unit": "%"}, {"measurement": "ring closure, yield of all isomers", "setting": "[1]; from CCOC(=O)CC(c1ccc2c(c1)CN(C(=O)OC(C)(C)C)CC2)c1ccc2c(nnn2CCCCCc2ccc(C(=O)OC(C)(C)C)cc2)c1C, HATU, 51.2 mM, 25.0 °C, 4.0 h, 2 steps", "result": 52.4, "unit": "%"}]}]}
